Structures are written as SMILES. Activity calls are given as the source filed them. No cut-off for these calls is given here.

One assay deals with COLO 201. Put plainly: Antiproliferative activity against human COLO201 cells assessed as inhibition of cell viability for 96 hrs by cell titre glo luminescence assay. Type of assay: functional, cell-based. To be noted: COLO 201, 96 h.
A further assay has as its system SK-OV-3. The experiment in a line: Antiproliferative activity against human SK-OV-3 cells assessed as inhibition of cell viability for 96 hrs by cell titre glo luminescence assay. In kind it is functional, cell-based. Conditions: SK-OV-3, 96 h.
Assay [1] deals with T1, Monoglyceride lipase (Homo sapiens, UniProt Q99685).
T1 sequence (Q99685 whole entry): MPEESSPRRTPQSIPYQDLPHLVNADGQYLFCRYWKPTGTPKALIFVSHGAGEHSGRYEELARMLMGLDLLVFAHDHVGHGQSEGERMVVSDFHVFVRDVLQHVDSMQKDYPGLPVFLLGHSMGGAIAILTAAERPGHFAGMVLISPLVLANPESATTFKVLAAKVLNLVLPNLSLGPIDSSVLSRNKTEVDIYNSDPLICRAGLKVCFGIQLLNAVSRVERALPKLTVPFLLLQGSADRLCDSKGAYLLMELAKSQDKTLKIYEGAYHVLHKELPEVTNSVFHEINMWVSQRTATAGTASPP
Description: Inhibition of human recombinant MAGL using 4-NPA as substrate by microplate reader method

The next assay has as its system OVCAR-5. The experiment in a line: Antiproliferative activity against human OVCAR-5 cells assessed as inhibition of cell viability for 96 hrs by cell titre glo luminescence assay. In kind it is functional, cell-based. Conditions: OVCAR-5, 96 h.
Assay [2] deals with T2, Monoglyceride lipase (Homo sapiens) (UniProt Q99685).
T2 sequence (whole entry): T1 sequence (Q99685 whole entry)
Conditions: dose 8.0 nM, time 60.0 min.

The next assay deals with HT-29. The experiment in a line: Antiproliferative activity against human HT-29 cells assessed as inhibition of cell viability for 96 hrs by cell titre glo luminescence assay. To be noted: HT-29, 96 h. Type of assay: functional, cell-based.
Another assay concerns HCT-116. Put plainly: Antiproliferative activity against human HCT-116 cells assessed as inhibition of cell viability for 96 hrs by cell titre glo luminescence assay. In kind it is functional, cell-based. To be noted: HCT-116, 96 h.
A further assay deals with OVCAR-3. Put plainly: Antiproliferative activity against human OVCAR-3 cells assessed as inhibition of cell viability for 96 hrs by cell titre glo luminescence assay. Type of assay: functional, cell-based. Conditions: OVCAR-3, 96 h.
The test system of another assay is KURAMOCHI
Put plainly: Antiproliferative activity against human KURAMOCHI cells assessed as inhibition of cell viability for 96 hrs by cell titre glo luminescence assay. In kind it is functional, cell-based.

Another assay has as its system COLO 205. The experiment in a line: Antiproliferative activity against human COLO205 cells assessed as inhibition of cell viability for 96 hrs by cell titre glo luminescence assay. Type of assay: functional, cell-based. Conditions: COLO 205, 96 h.
In assay [3] the target is T2, Monoglyceride lipase (Homo sapiens). To be noted: dose 320.0 nM, time 60.0 min.
Assay [4] deals with T1, Monoglyceride lipase. This is another data set of the same source.
Description: Inhibition of human recombinant MAGL assessed as dissociation constant using 4-NPA as substrate
The test system of a further assay is MDA-MB-231. Put plainly: Antiproliferative activity against human MDA-MB-231 cells assessed as inhibition of cell viability for 96 hrs by cell titre glo luminescence assay. Type of assay: functional, cell-based. To be noted: MDA-MB-231, 96 h.

Take `O=C(c1ccc(Sc2cccc(Cl)c2)cc1)C1CCN(C(=O)c2cc(O)ccc2F)CC1`: the IC50 was determined as 8.7 µM in the assay on COLO 201; 8.8 µM in the assay with SK-OV-3; 0.0015 µM against Monoglyceride lipase [1]; 3.7 µM in the assay on OVCAR-5; 9 µM in the assay with HT-29; 7.6 µM in the assay with HCT-116. Moreover, the IC50 was 12 µM with OVCAR-3, 7 µM in the assay on KURAMOCHI, 8.7 µM in the assay with COLO 205 and 2.7 µM in the assay with MDA-MB-231. The inhibition result in assay [2] and in assay [3] was “Active” in each case. On Monoglyceride lipase [4], this compound registered a Ki of 0.00114 µM.
In the case of `O=C(c1ccc(Sc2cccc(OC(F)(F)F)c2)cc1)C1CCN(C(=O)c2cc(O)ccc2F)CC1`, the IC50 in the assay on COLO 201 came to 3.3 µM; with SK-OV-3, 4.4 µM; against Monoglyceride lipase [1], 0.00186 µM; with OVCAR-5, 0.78 µM; with HT-29, 2.5 µM; with HCT-116, 3.4 µM. Also, the IC50 was found to be 8.6 µM in the assay on OVCAR-3, 3.7 µM in the assay with KURAMOCHI, 2.2 µM with COLO 205 and 10 µM in the assay with MDA-MB-231. In addition, the inhibition result in assay [2] and in assay [3] was “Active” in each case. At Monoglyceride lipase [4], this compound came in with a Ki of 0.00112 µM.
With `O=C(c1ccc(Cl)cc1)C1CCN(C(=O)c2cccc(O)c2)CC1`, the IC50 in the assay on COLO 201 was found to be 83 µM; in the assay on SK-OV-3, 84 µM; with OVCAR-5 it was 10 µM; in the assay on HT-29, 6.9 µM; in the assay with HCT-116 it was 86 µM; in the assay with OVCAR-3, 93 µM. Moreover, the IC50 in the assay with KURAMOCHI came to 75 µM; in the assay on COLO 205, 79 µM; in the assay on MDA-MB-231, 71 µM.
In the case of `O=C(c1ccc(Sc2cccc(C(F)(F)F)c2)cc1)C1CCN(C(=O)c2cc(O)ccc2F)CC1`, the concentration for half-maximal inhibition (IC50) in the assay on COLO 201 was determined as 2.9 µM; in the assay with SK-OV-3, 4.4 µM; in the assay on OVCAR-5, 0.32 µM; in the assay with HT-29, 8.4 µM; with HCT-116, 3.3 µM; in the assay on OVCAR-3, 5.7 µM. For the same compound, the IC50 with KURAMOCHI was 3.3 µM; with COLO 205, 3.3 µM; with MDA-MB-231, 5.4 µM.

The IC50 is the concentration needed to halve the response being measured. In general, Ki refers to a dissociation constant, usually derived from enzyme kinetics or from competition with a known ligand. The low end stands for tighter binding, the high end for weaker binding.

Values taken from ChEMBL document CHEMBL4831497, “Monoacylglycerol lipase (MAGL) inhibitors based on a diphenylsulfide-benzoylpiperidine scaffold” (Eur J Med Chem, 2021).
